Reference: PMC3927474, “Whole body synthesis rates of DHA from α-linolenic acid are greater than brain DHA accretion and uptake rates in adult rats” (Journal of Lipid Research, 2014)

Tests used:
[1] = system: brain-derived neurotrophic factor; experiment: Brain gene expression (TLDA qPCR); assay type: in vivo, rat; settings: 15 wk diet; control diet = 1
Outline: (§1)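 Rats 15 weeks post-weaning; half brains flash-frozen, then dissected into brainstem, cerebellum, cortex, hippocampus, striatum and remainder. Trizol RNA, 1 μg reverse transcribed; 50 ng cDNA run by TaqMan qPCR on custom TLDA cards, expression normalized to phosphoglycerate kinase 1.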

[2] = system: epidermal growth factor receptor; experiment: Brain gene expression (TLDA qPCR); assay type: in vivo, rat; settings: 15 wk diet; control diet = 1
Outline: as §1

group 6 iPLA2 = experiment: Brain gene expression (TLDA qPCR); assay type: in vivo, rat; settings: 15 wk diet; control diet = 1
Outline: as §1

[3] = Whole body fatty acids by GC-FID, balance study; assay type: in vivo, rat; settings: 15 wk diet
Method: Carcasses were thawed overnight in a refrigerator at 3°C, cut into pieces, and passed through a #12 hand grinder. After the whole body had passed through the grinder once, the homogenate was mixed together by hand and passed at least one more time through the grinder until the mixture was sufficiently homogeneous. Due to the small size of the pups all of the 21-day-old pup bodies were passed through the grinder together.
A portion of the whole body homogenate was weighed and further homogenized (done in duplicate for each 18-week-old rat and the baseline homogenate) using a Polytron benchtop homogenizer (Brinkman Instruments, Toronto, ON, Canada) in a mixture of chloroform:methanol:0.88%KCl (2:1:0.8 by volume) ([28]). The mixture was centrifuged at 500 g for 10 min, and the chloroform layer was extracted. New chloroform was added to the remaining aqueous phase, the mixture was once again centrifuged, and the chloroform layer was extracted and added to the previously extracted chloroform layer. This total lipid extract (TLE) was evaporated under N2, reconstituted in a known volume of chloroform, and stored under N2 at −80°C until further analysis.
A known amount of heptadecanoic acid (17:0; Nu-Check Prep, Elysian, MN) was added to the TLE. Samples were transmethylated using 14% boron trifluoride in methanol at 100°C for 1 h. Fatty acid methyl esters (FAMEs) were extracted with hexane and quantified using GC-FID. FAMEs were analyzed using a Varian-430 gas chromatograph (Varian, Lake Forest, CA) equipped with a Varian FactorFour capillary column (VF-23ms; 30 m × 0.25 mm interior diameter × 0.25 μm film thickness) and a FID. Samples were injected in splitless mode. The injector and detector ports were set at 250°C. […] The carrier gas was helium, set to a constant flow rate of 0.7 ml/min. Peaks were identified by retention times of authentic FAME standards (Nu-Chek Prep). The concentration of each fatty acid was calculated by comparison with the internal standard (17:0) ([29]). The concentrations were expressed on a per gram basis then multiplied by total weight of the tissue to determine the total amount of each fatty acid in the tissue.

[4] = rats; cited from earlier work

CC/C=C\C/C=C\C/C=C\C/C=C\C/C=C\C/C=C\CCC(=O)O [DHA, Docosahexaenoic acid]
Brainstem gene expression: BDNF [1]: 1.19 RQ
Cerebellum gene expression: BDNF [1]: 0.88 RQ
Cortex gene expression: BDNF [1]: 1.16 RQ
Hippocampus gene expression: BDNF [1]: 1.13 RQ
Rest of brain gene expression: BDNF [1]: 0.99 RQ
Striatum gene expression: BDNF [1]: 2.10 RQ
Brainstem gene expression: EGFR [2]: 1.14 RQ
Cerebellum gene expression: EGFR [2]: 0.96 RQ
Cortex gene expression: EGFR [2]: 0.99 RQ
Hippocampus gene expression: EGFR [2]: 1.04 RQ
Rest of brain gene expression: EGFR [2]: 1.08 RQ
Striatum gene expression: EGFR [2]: 0.82 RQ
Brainstem gene expression: iPLA2 (group 6 iPLA2): 1.10 RQ
Cerebellum gene expression: iPLA2 (group 6 iPLA2): 1.00 RQ
Cortex gene expression: iPLA2 (group 6 iPLA2): 1.09 RQ
Hippocampus gene expression: iPLA2 (group 6 iPLA2): 1.05 RQ
Rest of brain gene expression: iPLA2 (group 6 iPLA2): 1.10 RQ
Striatum gene expression: iPLA2 (group 6 iPLA2): 0.90 RQ

CC/C=C\C/C=C\C/C=C\CCCCCCCC(=O)O [ALA, α-linolenic acid]
Whole body fatty acids: 12:0 [3]: 23532 µmol
Whole body fatty acids: 14:0 [3]: 17606 µmol
Whole body fatty acids: 14:1n-7 [3]: 1331 µmol
Whole body fatty acids: 16:0 [3]: 44604 µmol
Whole body fatty acids: 16:1n-7 [3]: 16111 µmol
Whole body fatty acids: 18:0 [3]: 6101 µmol
Whole body fatty acids: 18:1n-7 [3]: 7553 µmol
Whole body fatty acids: 18:1n-9 [3]: 38781 µmol
Whole body fatty acids: 18:2n-6 [3]: 29104 µmol
Whole body fatty acids: 18:3n-3 [3]: 1557 µmol
Whole body fatty acids: 18:3n-6 [3]: 67 µmol
Whole body fatty acids: 20:1n-9 [3]: 189 µmol
Whole body fatty acids: 20:2 [3]: 194 µmol
Whole body fatty acids: 20:3n-3 [3]: 137 µmol
Whole body fatty acids: 22:4n-6 [3]: 155 µmol
Whole body fatty acids: 22:5n-3 [3]: 101 µmol
Whole body fatty acids: 22:5n-6 [3]: 124 µmol
Whole body fatty acids: ARA (20:4n-6) [3]: 1954 µmol
Whole body fatty acids: DHA (22:6n-3) [3]: 481 µmol
Whole body fatty acids: EPA (20:5n-3) [3]: 76 µmol
Brainstem gene expression: BDNF [1]: 0.72 RQ
Cerebellum gene expression: BDNF [1]: 0.98 RQ
Cortex gene expression: BDNF [1]: 1.03 RQ
Hippocampus gene expression: BDNF [1]: 1.03 RQ
Rest of brain gene expression: BDNF [1]: 0.99 RQ
Striatum gene expression: BDNF [1]: 1.01 RQ
Brainstem gene expression: EGFR [2]: 1.05 RQ
Cerebellum gene expression: EGFR [2]: 1.26 RQ
Cortex gene expression: EGFR [2]: 0.94 RQ
Hippocampus gene expression: EGFR [2]: 1.10 RQ
Rest of brain gene expression: EGFR [2]: 1.06 RQ
Striatum gene expression: EGFR [2]: 1.00 RQ
Brainstem gene expression: iPLA2 (group 6 iPLA2): 0.89 RQ
Cerebellum gene expression: iPLA2 (group 6 iPLA2): 1.02 RQ
Cortex gene expression: iPLA2 (group 6 iPLA2): 0.92 RQ
Hippocampus gene expression: iPLA2 (group 6 iPLA2): 1.02 RQ
Rest of brain gene expression: iPLA2 (group 6 iPLA2): 0.95 RQ
Striatum gene expression: iPLA2 (group 6 iPLA2): 0.96 RQ
DHA synthesis rate from ALA (steady-state infusion) [4]: 9.8 µmol/day
